In brackets after ≈: the same amount, converted by molar mass.
Details: buffer; pH 7.4; 200.0 µM

**Q.** Which solubility kinetic does the source give for `CCc1ccccc1NC(=O)CSc1nc(C)c(C)o1` here?
**A.** Its solubility kinetic is > 43.6 µg/mL.

**Q.** With `CN(CCc1ccccn1)C(=S)Nc1ccc(Cl)cc1Cl` as the compound, how does the solubility kinetic read?
**A.** Its solubility kinetic is 46.2 µg/mL (≈ 136 µM).

**Q.** Which solubility kinetic does the source give for `CC(=O)OC1(c2ccccc2)CCN(C)CC1(C)C.Cl` (stereo not given) here?
**A.** Its solubility kinetic is 44.2 µg/mL.

**Q.** With `CCN(C(=O)Nc1cccc(Cl)c1)c1ccccc1` as the compound, how does the solubility kinetic read?
**A.** The solubility kinetic was 18.6 µg/mL (≈ 67.7 µM).

**Q.** Which solubility kinetic does the source give for `O=C(COc1ccc(Cl)cc1)NCCCNC(=O)c1ccccn1` here?
**A.** Its solubility kinetic is 50.5 µg/mL (≈ 145 µM).

**Q.** With `CN(CC(=O)Nc1ccc(Cl)cc1)C1CCCCC1` as the compound, how does the solubility kinetic read?
**A.** The solubility kinetic was 36 µg/mL (≈ 128 µM).

**Q.** For `O=C(C1CC1)N1CCc2sccc2C1c1ccc(Cl)cc1` (stereo not given), which solubility kinetic is on record?
**A.** The solubility kinetic was < 0.7 µg/mL.

**Q.** For `Cc1ccc2[nH]cc(S(=O)(=O)c3ccc(F)cc3)c(=O)c2c1`, which solubility kinetic is on record?
**A.** Its solubility kinetic is 5.5 µg/mL (≈ 17.3 µM).

**Q.** Which solubility kinetic does the source give for `Cc1noc(N)c1C1(O)C(=O)Nc2c(Cl)cc(Cl)cc21` (stereo not given) here?
**A.** Its solubility kinetic is > 47.1 µg/mL.

**Q.** With `Cc1ccc(S(=O)(=O)CCC(=O)N2CCN(c3ccccc3O)CC2)cc1` as the compound, how does the solubility kinetic read?
**A.** Its solubility kinetic is 35.9 µg/mL (≈ 92.4 µM).

**Q.** For `Cc1cc(C)cc(NS(=O)(=O)c2c(C)[nH]c(=O)[nH]c2=O)c1`, which solubility kinetic is on record?
**A.** Its solubility kinetic is > 46.4 µg/mL.

**Q.** For `Cn1cc([N+](=O)[O-])cc1-c1nc2ccccc2n1C`, which solubility kinetic is on record?
**A.** Its solubility kinetic is > 38.4 µg/mL.

**Q.** Which solubility kinetic does the source give for `Cc1[nH]c(=S)c(C#N)c(C)c1Cc1ccccc1` here?
**A.** Its solubility kinetic is 8.6 µg/mL (≈ 33.8 µM).

**Q.** Which solubility kinetic does the source give for `CC(=O)Nc1ccc(C23CC4CC(CC(C4)C2)C3)cc1` here?
**A.** Its solubility kinetic is 0.8 µg/mL (≈ 2.97 µM).

**Q.** Which solubility kinetic does the source give for `COc1cc(CC(=O)NCCCc2ccccc2)cc(OC)c1OC` here?
**A.** Its solubility kinetic is > 51.5 µg/mL.

**Q.** With `C#CCn1cc(Cl)cc(C(=O)Nc2ccccc2)c1=O` as the compound, how does the solubility kinetic read?
**A.** The solubility kinetic was 2.1 µg/mL (≈ 7.32 µM).

**Q.** For `COc1ccc(OC)c(C(=O)CN2C(=O)C(=O)N(C3CCCC3)C2=O)c1`, which solubility kinetic is on record?
**A.** Its solubility kinetic is 41.3 µg/mL (≈ 115 µM).

**Q.** For `Nc1ccc(C2(c3ccc(N)cc3)OC(=O)c3ccccc32)cc1`, which solubility kinetic is on record?
**A.** Its solubility kinetic is 32.1 µg/mL (≈ 101 µM).

**Q.** With `Cc1ccc2nc(N3CCN(C)CC3)c(C=O)c(=O)n2c1` as the compound, how does the solubility kinetic read?
**A.** The solubility kinetic was 41.3 µg/mL (≈ 144 µM).

**Q.** For `CCS(=O)(=O)N1CCC(C(=O)Nc2cccc(F)c2)CC1`, which solubility kinetic is on record?
**A.** Its solubility kinetic is > 47.2 µg/mL.

**Q.** With `O=C(COC(=O)c1cc(Cl)nc(Cl)c1)NC1CCCCCC1` as the compound, how does the solubility kinetic read?
**A.** Its solubility kinetic is 5.9 µg/mL (≈ 17.1 µM).

**Q.** With `Cc1[nH]c2ccccc2c1C(=O)C(=O)N1CCN(C)CC1` as the compound, how does the solubility kinetic read?
**A.** The solubility kinetic was > 42.8 µg/mL.

**Q.** Which solubility kinetic does the source give for `COc1cc2c(cc1OC)C(c1ccccc1F)NCC2` (stereo not given) here?
**A.** Its solubility kinetic is > 43.1 µg/mL.

**Q.** For `COc1ccc(NC(=O)CNC(=O)c2c(C)nn(C)c2Cl)cc1`, which solubility kinetic is on record?
**A.** Its solubility kinetic is > 50.5 µg/mL.

**Q.** With `Cc1cccc(CC(=O)Nc2cccnc2)c1` as the compound, how does the solubility kinetic read?
**A.** Its solubility kinetic is 31 µg/mL (≈ 137 µM).

**Q.** For `COCCNc1ccc(N2C(=O)C3CCCCC3C2=O)cc1[N+](=O)[O-]` (stereo not given), which solubility kinetic is on record?
**A.** Its solubility kinetic is 50.8 µg/mL (≈ 146 µM).

**Q.** For `Cc1ccc(Nc2cc(=O)[nH]c(=O)[nH]2)cc1C`, which solubility kinetic is on record?
**A.** The solubility kinetic was 18.2 µg/mL (≈ 78.7 µM).

**Q.** For `CCOC(CNc1ncnc2sc(-c3ccccc3)cc12)OCC`, which solubility kinetic is on record?
**A.** Its solubility kinetic is 18.6 µg/mL (≈ 54.2 µM).

**Q.** With `COc1ccc(-c2nc(N)c(C#N)c(-c3cccnc3)c2C)cc1` as the compound, how does the solubility kinetic read?
**A.** The solubility kinetic was 2.8 µg/mL (≈ 8.85 µM).

**Q.** Which solubility kinetic does the source give for `O=[N+]([O-])c1cccc(CN2CCN(c3ncccn3)CC2)c1` here?
**A.** The solubility kinetic was 32.2 µg/mL (≈ 108 µM).

**Q.** For `CC1CCc2c(sc3[nH]c(=S)n(C)c(=O)c23)C1` (stereo not given), which solubility kinetic is on record?
**A.** Its solubility kinetic is 4.2 µg/mL (≈ 15.8 µM).

**Q.** Which solubility kinetic does the source give for `O=C(NCCN1CCOCC1)Nc1cccc(Cl)c1` here?
**A.** Its solubility kinetic is 40.1 µg/mL (≈ 141 µM).

**Q.** Which solubility kinetic does the source give for `CCOc1cc(C(=S)N2CCCC2)ccc1OCc1ccccc1` here?
**A.** Its solubility kinetic is 7.6 µg/mL (≈ 22.3 µM).

**Q.** With `N/C(=N\OC(=O)CCN1C(=O)c2ccccc2C1=O)c1ccccn1` as the compound, how does the solubility kinetic read?
**A.** The solubility kinetic was 49.6 µg/mL (≈ 147 µM).

**Q.** For `CCOc1ccc(N/C=C/C(=O)c2ccc(OC)c(OC)c2)cc1`, which solubility kinetic is on record?
**A.** The solubility kinetic was 2.2 µg/mL (≈ 6.72 µM).

**Q.** With `CC1CC(C)CN(C(=O)c2cccc(NC(=O)CC3SC(N4CCCCC4)=NC3=O)c2)C1` (stereo not given) as the compound, how does the solubility kinetic read?
**A.** The solubility kinetic was 67.1 µg/mL (≈ 147 µM).

**Q.** For `CCOc1ccc(Nc2nc(N)c([N+](=O)[O-])c(NCc3ccccc3)n2)cc1`, which solubility kinetic is on record?
**A.** The solubility kinetic was < 0.1 µg/mL.

**Q.** Which solubility kinetic does the source give for `COc1ccccc1N1CCN(c2nc(C)cc(C)c2C#N)CC1` here?
**A.** Its solubility kinetic is 10.4 µg/mL (≈ 32.3 µM).

**Q.** Which solubility kinetic does the source give for `COc1ccccc1C(=O)CSc1nccn1C` here?
**A.** The solubility kinetic was 35.9 µg/mL (≈ 137 µM).

**Q.** With `Cc1cc2nc3c(=O)n(C4CCCCC4)c(=O)[nH]c3nc2cc1N` as the compound, how does the solubility kinetic read?
**A.** The solubility kinetic was 2.8 µg/mL (≈ 8.61 µM).

**Q.** For `CCOc1ccc(NC(=O)Cc2c(C(=O)O)n(C)c3ccccc23)cc1`, which solubility kinetic is on record?
**A.** The solubility kinetic was > 52.9 µg/mL.

**Q.** With `CC(=O)c1ccc(NC(=O)C(C)Nc2ccc(Cl)cc2)cc1` (stereo not given) as the compound, how does the solubility kinetic read?
**A.** Its solubility kinetic is 40.9 µg/mL (≈ 129 µM).

**Q.** For `CC1CCCC(NC(=O)CCC(=O)c2ccc(F)cc2)C1C` (stereo not given), which solubility kinetic is on record?
**A.** The solubility kinetic was 33.8 µg/mL (≈ 111 µM).

**Q.** With `CC12CN(C(=O)c3cccc([N+](=O)[O-])c3)C3(C#N)CC1CCC23C` (stereo not given) as the compound, how does the solubility kinetic read?
**A.** The solubility kinetic was 45.3 µg/mL (≈ 139 µM).

**Q.** Which solubility kinetic does the source give for `CCC1Oc2ccc(C)cc2N(CC(=O)N2CCCC2)C1=O` (stereo not given) here?
**A.** The solubility kinetic was > 45.4 µg/mL.

**Q.** For `COc1ccc(N2CC(NC(=O)N(C)CCC#N)CC2=O)cc1` (stereo not given), which solubility kinetic is on record?
**A.** Its solubility kinetic is 46.7 µg/mL (≈ 148 µM).

**Q.** For `Cc1ccc(S(=O)(=O)/C(=C\N(C)C)c2cnc(Cl)s2)cc1`, which solubility kinetic is on record?
**A.** The solubility kinetic was > 51.4 µg/mL.

**Q.** With `COc1cc2c(cc1OC)C(c1ccc(O)cc1)NCC2` (stereo not given) as the compound, how does the solubility kinetic read?
**A.** The solubility kinetic was > 42.8 µg/mL.

**Q.** With `CC(C)CNC(=O)COC(=O)c1ccc(F)cc1Cl` as the compound, how does the solubility kinetic read?
**A.** The solubility kinetic was > 43.2 µg/mL.

**Q.** For `N#Cc1ccc(OCc2noc(-c3ccsc3)n2)cc1`, which solubility kinetic is on record?
**A.** Its solubility kinetic is 0.3 µg/mL (≈ 1.06 µM).

**Q.** With `COc1ccccc1CNC(=O)c1ccc(C)s1` as the compound, how does the solubility kinetic read?
**A.** Its solubility kinetic is > 39.2 µg/mL.

**Q.** Which solubility kinetic does the source give for `O=c1c2[nH]c3cccc(Cl)c3c2ncn1CC1CCCO1` (stereo not given) here?
**A.** The solubility kinetic was 7.4 µg/mL (≈ 24.4 µM).

**Q.** Which solubility kinetic does the source give for `COc1cc(/C=C/c2ccc3cccc(O)c3n2)ccc1O` here?
**A.** The solubility kinetic was 4.8 µg/mL (≈ 16.4 µM).

**Q.** Which solubility kinetic does the source give for `C=CCNc1cc(C)oc(=O)c1C(=O)CC` here?
**A.** The solubility kinetic was > 33.2 µg/mL.

**Q.** With `COc1ccc(NC(=O)CN2C(=O)NC3(CCCCCC3)C2=O)cc1Cl` as the compound, how does the solubility kinetic read?
**A.** Its solubility kinetic is 13.8 µg/mL (≈ 36.3 µM).

**Q.** With `CC(=O)Cn1c(CN2CCCCC2)nc2ccccc2c1=O` as the compound, how does the solubility kinetic read?
**A.** Its solubility kinetic is > 44.9 µg/mL.

**Q.** Which solubility kinetic does the source give for `CC(C)Cn1c(SCC(=O)O)nnc1-c1cccc(S(=O)(=O)N2CCOCC2)c1` here?
**A.** Its solubility kinetic is > 66.1 µg/mL.

**Q.** For `COc1ccccc1C(=O)Nc1ccc2c(C)cc(=O)oc2c1`, which solubility kinetic is on record?
**A.** The solubility kinetic was 1.3 µg/mL (≈ 4.2 µM).

**Q.** With `O=S(=O)(NCc1cccs1)c1ccc(Cl)s1` as the compound, how does the solubility kinetic read?
**A.** The solubility kinetic was 40.5 µg/mL (≈ 138 µM).

**Q.** With `FC(F)(F)Oc1ccc(NC2=NCCCS2)cc1` as the compound, how does the solubility kinetic read?
**A.** The solubility kinetic was 41.4 µg/mL (≈ 150 µM).

Reference: PubChem BioAssay AID1996
